{"source": "paper PMC7053198", "about": "(Theranostics, 2020)", "key": {"A375Pβ6 cells [1]": {"system": "A375Pβ6 cells", "format": "cell-based, human", "settings": "30 min at 4°C"}, "A375Ppuro cells [2]": {"system": "A375Ppuro cells", "format": "cell-based, human", "settings": "30 min at 4°C"}, "Capan-1 cells [3]": {"system": "Capan-1 cells", "format": "cell-based, human"}, "Panc1 cell line": {"system": "Panc1 cell line", "format": "cell-based", "settings": "after 30 min"}, "[4]": {"system": "PANC354, PANC253 and PANC215 PDX PDAC cells", "format": "cell-based, human"}, "A375Ppuro xenografts": {"system": "A375Ppuro xenografts", "format": "in vivo, mouse", "settings": "after 21 days"}, "A375Pβ6 xenografts": {"system": "A375Pβ6 xenografts", "settings": "mouse, in vivo, ip"}, "Capan-1 PDAC xenografts": {"system": "Capan-1 PDAC xenografts", "settings": "mouse, in vivo, ip"}, "Panc0403/PS1 xenografts": {"system": "Panc0403/PS1 xenografts", "format": "in vivo, mouse", "settings": "n=4"}, "Capan-1 tumor xenografts": {"system": "Capan-1 tumor xenografts", "format": "in vivo, mouse", "settings": "n=3"}, "[5]": {"system": "Panc0403/PS1 tumor xenografts", "format": "in vivo, mouse", "settings": "n=4"}, "[6]": {"system": "αvβ6-positive versus αvβ6-negative cell lines", "format": "cell-based"}, "A375Ppuro cells [7]": {"system": "A375Ppuro cells"}, "A375Pβ6 cells [8]": {"system": "A375Pβ6 cells"}, "Capan-1 cells [9]": {"system": "Capan-1 cells"}, "[10]": {"settings": "mouse, in vivo, ip"}, "[11]": {"settings": "in vivo, ip"}, "in vivo": {"test": "in vivo", "settings": "female, CD1 Nu/Nu, mouse, ip, 20 ug/kg"}}}
{"smiles": "COc1cc2c(cc1OCCCCCOc1cc3c(cc1OC)C(=O)N1C=C(C)C[C@H]1[C@H](O)N3C(=O)OCc1ccc(NC(=O)[C@H](C)NC(=O)[C@@H](NC(=O)CCOCCOCCOCCOCCOCCOCCOCCOCCNC(=O)CCN3C(=O)CC(SC[C@H](NC(=O)[C@@H](NC(=O)[C@H](CCCNC(=N)N)NC(=O)[C@H](C)NC(=O)[C@@H](NC(=O)[C@H](CCCCN)NC(=O)[C@H](CCC(N)=O)NC(=O)[C@H](C)NC(=O)[C@H](CC(C)C)NC(=O)[C@@H](NC(=O)[C@H](CCC(N)=O)NC(=O)[C@H](CC(C)C)NC(=O)[C@H](CC(=O)O)NC(=O)CNC(=O)[C@H](CCCNC(=N)N)NC(=O)[C@H](CC(C)C)NC(=O)[C@H](CC(N)=O)NC(=O)[C@@H]4CCCN4C(=O)[C@@H](NC(=O)[C@H](C)NC(=O)[C@H](CC(N)=O)NC(=O)CCCC[C@@H]4SC[C@@H]5NC(=O)N[C@@H]54)C(C)C)C(C)C)C(C)C)[C@@H](C)O)C(=O)O)C3=O)C(C)C)cc1)N=C[C@@H]1CC(C)=CN1C2=O", "note": "(stereo partly drawn) [SG3299]", "values": [{"measurement": "binding to A375Pβ6 cells (MFI)", "setting": "A375Pβ6 cells [1]", "result": "dose-dependent binding"}, {"measurement": "binding to A375Ppuro cells (MFI)", "setting": "A375Ppuro cells [2]", "result": "failed to bind"}, {"measurement": "binding and internalisation in Capan-1 cells", "setting": "Capan-1 cells [3]", "result": "strong binding and entry into the cytoplasm"}, {"measurement": "levels of internalised conjugate in αvβ6-negative Panc1", "setting": "Panc1 cell line", "result": "no significant difference in the levels of internalised SG3299 or SG3511"}, {"measurement": "reduction of the number of spheres formed compared with control-treated spheres", "setting": "[4]", "result": "72±27", "unit": "%"}, {"measurement": "reduction in tumor size compared with vehicle (PBS)", "setting": "A375Ppuro xenografts", "result": "34.8±4.6", "unit": "%"}, {"measurement": "reduced growth more than SG3511", "setting": "A375Pβ6 xenografts", "result": 2.3, "unit": "fold"}, {"measurement": "reduction of tumor growth compared with PBS treatment", "setting": "A375Pβ6 xenografts", "result": "79±7", "unit": "%"}, {"measurement": "effect on tumor growth", "setting": "Capan-1 PDAC xenografts", "result": "significant growth inhibition"}, {"measurement": "mice with tumors eliminated", "setting": "Capan-1 PDAC xenografts", "result": "4 out of 5"}, {"measurement": "reduction of tumor growth compared to PBS", "setting": "Capan-1 PDAC xenografts", "result": "97.7±2", "unit": "%"}, {"measurement": "reduction of tumor growth compared to SG3511", "setting": "Capan-1 PDAC xenografts", "result": "96.1±3.4", "unit": "%"}, {"measurement": "reduction of xenograft tumor growth compared with PBS treatment", "setting": "Panc0403/PS1 xenografts", "result": "75.8±6", "unit": "%"}, {"measurement": "reduction of xenograft tumor growth compared with SG3511 therapy", "setting": "Panc0403/PS1 xenografts", "result": "60.4±9.8", "unit": "%"}, {"measurement": "increase in DNA damage (γH2AX) compared with PBS", "setting": "Capan-1 tumor xenografts", "result": 5.9, "unit": "fold"}, {"measurement": "increase in apoptosis (cleaved-caspase 3) from PBS", "setting": "Capan-1 tumor xenografts", "result": 5.8, "unit": "fold"}, {"measurement": "increased vimentin compared with PBS", "setting": "Capan-1 tumor xenografts", "result": 4.6, "unit": "fold"}, {"measurement": "increased α-sma expression from PBS", "setting": "Capan-1 tumor xenografts", "result": 1.9, "unit": "fold"}, {"measurement": "reduction in CK-positive epithelial cells compared with PBS", "setting": "Capan-1 tumor xenografts", "result": "79.2±11.2", "unit": "%"}, {"measurement": "reduction in E-cadherin-positive epithelial cells compared with PBS", "setting": "Capan-1 tumor xenografts", "result": "85±8", "unit": "%"}, {"measurement": "reduction in proliferation (Ki67 staining) compared with SG3511", "setting": "Capan-1 tumor xenografts", "result": "66.2±15.7", "unit": "%"}, {"measurement": "reduction in proliferation (Ki67 staining) compared with control", "setting": "Capan-1 tumor xenografts", "result": "67.5±15", "unit": "%"}, {"measurement": "increase in DNA damage (γH2AX) compared with PBS", "setting": "[5]", "result": 5.5, "unit": "fold"}, {"measurement": "increase in DNA damage (γH2AX) compared with SG3511", "setting": "[5]", "result": 2.9, "unit": "fold"}, {"measurement": "reduction of epithelial cell number (CK) compared with PBS", "setting": "[5]", "result": "44.2±18.1", "unit": "%"}, {"measurement": "reduction of epithelial cell number (CK) compared with SG3511", "setting": "[5]", "result": "41.2±19.1", "unit": "%"}, {"measurement": "reduction of epithelial cell number (E-cadherin) compared with PBS", "setting": "[5]", "result": "46±11", "unit": "%"}, {"measurement": "reduction of epithelial cell number (E-cadherin) compared with SG3511", "setting": "[5]", "result": "32.1±34.6", "unit": "%"}, {"measurement": "reduction of proliferation (Ki67) compared with PBS", "setting": "[5]", "result": "60±13.1", "unit": "%"}, {"measurement": "reduction of proliferation (Ki67) compared with SG3511", "setting": "[5]", "result": "54.8±13.8", "unit": "%"}, {"measurement": "reduction of β6 expression compared to PBS", "setting": "[5]", "result": "73.4±11", "unit": "%"}, {"measurement": "reduction of β6 expression compared to SG3511", "setting": "[5]", "result": "61.1±16.1", "unit": "%"}, {"measurement": "higher toxicity at equal dose than the non-targeted PDC SG3511", "setting": "[6]", "result": "up to 15 fold"}, {"measurement": "more toxic for αvβ6-expressing versus αvβ6-negative PDAC cell lines", "setting": "[6]", "result": "up to 78 fold"}, {"measurement": "PDC αvβ6 Specificity Ratio", "setting": "A375Ppuro cells [7]", "result": 3.30}, {"measurement": "IC50", "setting": "A375Ppuro cells [7]; 72 h", "result": "30.6 ± 18.8", "unit": "nM"}, {"measurement": "PDC αvβ6 Specificity Ratio", "setting": "A375Pβ6 cells [8]", "result": 15.02}, {"measurement": "more potent in A375Pβ6 cells than SG3511", "setting": "A375Pβ6 cells [8]", "result": "over 15 fold"}, {"measurement": "more selective for A375Pβ6 cells than A375Ppuro cells", "setting": "A375Pβ6 cells [8]", "result": 5.7, "unit": "fold"}, {"measurement": "IC50", "setting": "A375Pβ6 cells [8]; 72 h", "result": "5.37 ± 5.23", "unit": "nM"}, {"measurement": "PDC αvβ6 Specificity Ratio", "setting": "Capan-1 cells [9]", "result": 2.80}, {"measurement": "IC50", "setting": "Capan-1 cells [9]; 72 h", "result": "4.19 ± 3.76", "unit": "nM"}, {"measurement": "PDC αvβ6 Specificity Ratio", "setting": "Colo357 cells", "result": 10.97}, {"measurement": "IC50", "setting": "Colo357 cells; 72 h", "result": "2.24 ± 1.59", "unit": "nM"}, {"measurement": "PDC αvβ6 Specificity Ratio", "setting": "Panc0403 cells", "result": 13.22}, {"measurement": "IC50", "setting": "Panc0403 cells; 72 h", "result": "3.44 ± 3.29", "unit": "nM"}, {"measurement": "PDC αvβ6 Specificity Ratio", "setting": "Panc1 cells", "result": 0.33}, {"measurement": "IC50", "setting": "Panc1 cells; 72 h", "result": "176 ± 116", "unit": "nM"}, {"measurement": "detection in urine", "setting": "[10]", "result": "No SG3299 was detected in the urine"}, {"measurement": "adverse effects (mouse weight, behaviour, gross histology of lung, intestine and stomach)", "setting": "[11]", "result": "no gross adverse effects"}, {"measurement": "level at time molar at 2 min", "setting": "in vivo", "result": "11 ± 4.3", "unit": "nM"}, {"measurement": "level at time molar at 5 min", "setting": "in vivo", "result": "9.5 ± 4.3", "unit": "nM"}, {"measurement": "level at time molar at 0.25 h", "setting": "in vivo", "result": "19.2 ± 4.9", "unit": "nM"}, {"measurement": "level at time molar at 1 h", "setting": "in vivo", "result": "27.9 ± 4.2", "unit": "nM"}]}
